{
  "source": "patent US8067015B2",
  "about": "“Methods and compositions for the treatment and prevention of Staphylococcus and other bacterial infections” (priority 1997, dated 2011)",
  "key": {"[1]": {"tested_on": "S. epidermidis MRSE strain", "assay": "Rat subcutaneous Dacron graft infection model, MRSE strain", "format": "in vivo", "details": "for Bacterial concentration, MRSE: 2×10^7 bacteria, explanted day 7; for Bacterial concentration, MRSE / Bacterial load on graft, MRSE: mean ± SD; for Bacterial load on graft, MRSE: Table 3A S. epidermidis", "method": "(§1) Rats (Wistar adult males (300-350 g), n=15/experimental group) were anaesthetized, hair on their back shaved and the skin cleansed with 10% povidone-iodine solution. A subcutaneous pocket was made on the side of the median line by a 1.5 cm incision. Aseptically, 1 cm^2 sterile collagen-sealed Dacron graft (Albograft™, Sorin Biomedica Cardio, S.p.A., Saluggi VC, Italy) was implanted into the pocket. […] Pockets were closed by skin clips and 1 ml sterile saline solution with or without 2×10^7 bacteria was inoculated onto the graft surface using a tuberculin syringe to create a subcutaneous fluid-filled pocket. Some of the animals that had grafts soaked only with RIP or saline were injected intraperitoneally with antibiotics (cefazolin 30 mg/kg, imipenem 30 mg/kg, teicoplanin 10 mg/kg, levofloxacin 10 mg/kg). Grafts were explanted 7 days following implantation.\n(§2) The explanted grafts were placed in sterile tubes, washed in sterile saline solution, placed in tubes containing 10 ml of phosphate-buffered saline solution and sonicated for 5 min to remove the adherent bacteria from the grafts. Quantitation of viable bacteria was performed by culturing serial 10-fold dilutions (0.1 ml) of the bacterial suspension on blood agar plates. All plates were incubated at 37° C. for 48 hr and evaluated for the presence of the strain. Bacteria were quantitated by counting the number of colony forming unites (CFU) per plate. To determine if bacteria were efficiently removed from the graft, washed and sonicated grafts were observed under a Nikon Eclipse E 600 optical microscope (Nikon Y-THS, Japan).\n(§3) Quantitative culture results of the in vivo experiments were presented as mean+SD of the mean. Comparisons of the results were performed by the analysis of variance (ANOVA) on the log-transformed data. Statistical analysis was performed for in vitro adhesion assays using Student's t-Test by Microsoft Excel (Microsoft, Wash.). Significance was accepted when the P value was <0.05.\n(§4) To test if RIP can prevent graft-associated infections, Dacron grafts were coated with or without RIP, and with or without various types of antibiotics (for local prophylaxis experiments). Coated grafts were implanted in rats, bacteria injected into the implants, implants removed after a week, and bacterial load determined. Alternatively, Dacron grafts were first coated with RIP, bacteria injected, and antibiotics were administered by the intraperitoneal route (for parenteral prophylaxis experiments). As a negative control, grafts were implanted without local or parenteral RIP/antibiotics prophylaxis and no bacteria were injected. As a positive control, grafts were implanted, bacteria were injected, but no RIP/antibiotics prophylaxis was given.\n(§5) Animals (15/group) received a Dacron-graft implanted in a subcutaneous pocket. Graft was subsequently infected with either S. epidermidis (tested on MSSE, MRSE and GISE) or with S. aureus (tested on MSSA, MRSA and GISA). The Dacron-graft prior to implantation was soaked in saline with or without 20 mg/l of RIP and some animals received […] of RIP i.p. as a prophylaxis treatment."}, "[2]": {"tested_on": "S. epidermidis MSSE strain", "assay": "Rat subcutaneous Dacron graft infection model, MSSE strain", "format": "in vivo", "details": "for Bacterial concentration, MSSE: 2×10^7 bacteria, explanted day 7; for Bacterial concentration, MSSE / Bacterial load on graft, MSSE: mean ± SD; for Bacterial load on graft, MSSE: Table 3A S. epidermidis", "method": "as §1, §2, §3, §4\nAnimals (15/group) received a Dacron-graft implanted in a subcutaneous pocket. Graft was subsequently infected with either S. epidermidis (tested on MSSE, MRSE and GISE) or with S. aureus (tested on MSSA, MRSA and GISA). […]"}, "S. aureus MSSA": {"tested_on": "S. aureus MSSA", "assay": "Rat subcutaneous Dacron graft infection model, MSSA strain", "format": "in vivo", "details": "Table 3B S. aureus, mean ± SD", "method": "as §1, with “implantation. Estimated RIP that adhered to graft was 10-26 μg.” for “implantation.”\nas §2, §5"}, "[3]": {"tested_on": "S. epidermidis (all strains tested)", "assay": "Rat subcutaneous Dacron graft infection model, all strains tested (GISE, MRSE, MSSE)", "format": "in vivo", "details": "RIP-coated graft", "method": "as §1, with “Some of the animals that had grafts soaked only with RIP or saline were injected intraperitoneally with antibiotics (cefazolin 30 mg/kg, imipenem 30 mg/kg, teicoplanin 10 mg/kg, levofloxacin 10 mg/kg). Grafts were explanted 7 days following implantation.” left out\nas §2, with “To determine if bacteria were efficiently removed from the graft, washed and sonicated grafts were observed under a Nikon Eclipse E 600 optical microscope (Nikon Y-THS, Japan).” left out\nQuantitative culture results of the in vivo experiments were presented as mean+SD of the mean. […]"}, "TRAP": {"tested_on": "TRAP", "details": "1 hr", "method": "S. aureus (right panel) and S. epidermidis (left panel) were in vivo phosphorylated for 1 hr in the presence or absence of RIP. Total cell homogenate was separated by SDS PAGE and the gel was autoradiographed.\nTo test for TRAP phosphorylation in S. epidermidis, in vivo phosphorylation assays were carried out as described for S. aureus. Briefly, early exponential S. epidermidis were grown in the presence of phosphate-free buffer supplemented with radiolabeled orthophosphate with or without RIP (10 μg/10^7 cells). After a 1 hr incubation period, the cells were collected by centrifugation, treated with lysostaphin followed by the addition of sample buffer, and total cell homogenate was applied without boiling to 15% SDS PAGE and the gel autoradiographed. The same experiment was carried out on 6390B S. aureus cells as a positive control."}, "S. aureus 8325-4": {"tested_on": "S. aureus 8325-4", "details": "rabbits; cited from earlier work"}, "[4]": {"tested_on": "S. aureus Newbould 305, AE-1, and environmental infections", "details": "cows; cited from earlier work"}, "[5]": {"tested_on": "bacterial adhesion to polystyrene, silicone and polyurethane", "details": "cited from earlier work"}, "[6]": {"details": "A. Local prophylaxis: graft soaked 20 min in RIP 10 mg/l and/or antibiotic (mupirocin 100, quinupristin-dalfopristin 50, levofloxacin 30, rifampin 5 mg/l), rats"}, "[7]": {"details": "B. Parenteral prophylaxis: antibiotic intraperitoneally (cefazolin 30, imipenem 30, teicoplanin 10, levofloxacin 10 mg/kg), RIP as 10 mg/l graft soak, rats"}, "[8]": {"details": "RIP local (graft soaked in 20 mg/l RIP)"}, "[9]": {"details": "RIP parenteral (10 mg/l RIP i.p.)"}, "[10]": {"details": "peptide-soaked/coated Dacron graft (RIP 10 mg/l), no antibiotic, rats, day 7"}},
  "note": "Like-named read-outs stand apart in the source and are kept apart here. Where no end group is shown, it is not given here.",
  "data": [
    {"substance": "YSPWTNF(—NH2) (YSPWTNF-NH2) [RIP]", "values": [
      {"measurement": "Bacterial concentration, MRSE", "setting": "[1]; [6]", "result": "0.74 ± 0.18 ×10^4 CFU/ml"},
      {"measurement": "Bacterial concentration, MRSE", "setting": "[1]; [7]", "result": "0.74 ± 0.18 ×10^4 CFU/ml"},
      {"measurement": "Bacterial load on graft, MRSE", "setting": "[1]; [8]", "result": "0.087 ± 0.023 ×10^4 CFU/ml"},
      {"measurement": "Bacterial load on graft, MRSE", "setting": "[1]; RIP local + RIP parenteral", "result": "0.00 ± 0 ×10^4 CFU/ml"},
      {"measurement": "Bacterial load on graft, MRSE", "setting": "[1]; [9]", "result": "0.052 ± 0.017 ×10^4 CFU/ml"},
      {"measurement": "Quantitative culture results of explanted graft, MRSE strain", "setting": "[1]; [10]", "result": "7.4×10^3±1.8×10^3 CFU/ml"},
      {"measurement": "Bacterial concentration, MSSE", "setting": "[2]; [6]", "result": "0.91 ± 0.23 ×10^4 CFU/ml"},
      {"measurement": "Bacterial concentration, MSSE", "setting": "[2]; [7]", "result": "0.91 ± 0.23 ×10^4 CFU/ml"},
      {"measurement": "Bacterial load on graft, MSSE", "setting": "[2]; [8]", "result": "0.08 ± 0.024 ×10^4 CFU/ml"},
      {"measurement": "Bacterial load on graft, MSSE", "setting": "[2]; RIP local + RIP parenteral", "result": "0.00 ± 0 ×10^4 CFU/ml"},
      {"measurement": "Bacterial load on graft, MSSE", "setting": "[2]; [9]", "result": "0.067 ± 0.019 ×10^4 CFU/ml"},
      {"measurement": "Quantitative culture results of explanted graft, MSSE strain", "setting": "[2]; [10]", "result": "9.1×10^3±2.3×10^3 CFU/ml"},
      {"measurement": "Bacterial load on graft, MSSE", "setting": "S. aureus MSSA; [8]", "result": "0.55 ± 0.19 ×10^4 CFU/ml"},
      {"measurement": "Bacterial load on graft, MSSE", "setting": "S. aureus MSSA; RIP local + RIP parenteral", "result": "0.00 ± 0 ×10^4 CFU/ml"},
      {"measurement": "Bacterial load on graft, MSSE", "setting": "S. aureus MSSA; [9]", "result": "0.045 ± 0.009 ×10^4 CFU/ml"},
      {"measurement": "Reduction of bacterial load", "setting": "[3]", "result": 3, "unit": "log"},
      {"measurement": "TRAP phosphorylation", "setting": "TRAP; RIP 10 μg/10^7 cells, S. epidermidis", "result": "can be inhibited"},
      {"measurement": "TRAP phosphorylation", "setting": "TRAP; in presence or absence of RIP, S. aureus", "result": "inhibits TRAP phosphorylation"},
      {"measurement": "Suppressing S. aureus infection: keratitis", "setting": "S. aureus 8325-4", "result": "extremely effective"},
      {"measurement": "Suppressing S. aureus infection: mastitis", "setting": "[4]", "result": "extremely effective"},
      {"measurement": "Bacterial adhesion to plastic", "setting": "[5]", "result": "decreased"}
    ]}
  ]
}
